Among the data in patent US7705030B2, “Amino-5-(5-membered)hetero-arylimidazolone compounds and the use thereof for β-secretase modulation” (Wyeth LLC, priority 2005, dated 2010) are melting point and IC50 values, retold here.

As a reminder, the melting point is the temperature, or range, at which the solid turns liquid. In general, IC50 refers to the concentration that gives 50% inhibition. Read a low IC50 as greater potency.

Counter-ions that a name gives are not always drawn.

One data set has as its target human BACE1 (Homo sapiens, UniProt P56817). Description: Fluorescent kinetic assay: Evaluation of BACE-1 Binding Affinity of Test Compounds. It counts as biochemical. To be noted: 10 nM enzyme, 25 μM substrate WABC-6, 50 mM Na-Acetate pH 4.5, room temperature. The method, then:
Evaluation of BACE-1 Binding Affinity of Test Compounds
Fluorescent Kinetic Assays
Final Assay Conditions: 10 nM human BACE1 (or 10 nM Murine BACE1, 1.5 nM human BACE2), 25 μM substrate (WABC-6, MW 1549.6, from AnaSpec), Buffer: 50 mM Na-Acetate, pH 4.5, 0.05% CHAPS, 25% PBS, room temperature. Na-Acetate was from Aldrich, Cat.# 24, 124-5, CHAPS was from Research Organics, Cat. # 1304C 1×, PBS was from Mediatech (Cellgro), Cat# 21-031-CV, peptide substrate Abz[…]pa was from AnaSpec, Peptide Name: WABC-6 Determination of stock substrate (Abz[…]pa) concentration: ˜25 mM stock solution is made in DMSO using the peptide weight and MW, and diluted to ˜25 μM (1:1000) in 1×PBS. Concentration is determined by absorbance at 354 nm using an extinction coefficient ε of 18172 M^−1 cm^−1, the concentration of stock substrate is corrected, and the substrate stock stored in small aliquots in −80° C. [Substrate Stock]=ABS^354 nm*10^6/18172 (in […]) The extinction coefficient ε^354 nm was adapted from TACE peptide substrate, which had the same quencher-fluorophore pair.
Determination of Stock Enzyme Concentration: the stock concentration of each enzyme is determined by absorbance at 280 nm using an ε of 64150 M^−1 cm^−1 for hBACE1 and MuBACE1, 62870 M^−1 cm^−1 for hBACE2 in 6 M Guanidinium Hydrochloride (from Research Organics, Cat. # 5134G-2), pH ˜6. The extinction coefficient ε^280 nm for each enzyme was calculated based on known amino acid composition and published extinction coefficients for Trp ([…]) and Tyr ([…]) residues (Anal. Biochem. 182, 319-326).
Dilution and mixing steps: total reaction volume: 100 μL
2× inhibitor dilutions in buffer A(66.7 mM Na-Acetate, pH 4.5, 0.0667% CHAPS) were prepared,
4× enzyme dilution in buffer A(66.7 mM Na-Acetate, pH 4.5, 0.0667% CHAPS) were prepared,
100 μM substrate dilution in 1×PBS was prepared, and
50 μL 2× Inhibitor, 25 μL 100 μM substrate are added to each well of 96-well plate (from DYNEX Technologies, VWR #: 11311-046), immediately followed by 25 μL 4× enzyme (added to the inhibitor and substrate mix), and the fluorescence readings are initiated.
Fluorescence Readings: Readings at λex 320 nm and λem 420 nm are taken every 40 sec for 30 min at room temperature and the linear slope for substrate cleavage rate (vi) determined.
Testing at least 10 different inhibitor concentrations is preferred.

Chain of human BACE1 (P56817 46-501): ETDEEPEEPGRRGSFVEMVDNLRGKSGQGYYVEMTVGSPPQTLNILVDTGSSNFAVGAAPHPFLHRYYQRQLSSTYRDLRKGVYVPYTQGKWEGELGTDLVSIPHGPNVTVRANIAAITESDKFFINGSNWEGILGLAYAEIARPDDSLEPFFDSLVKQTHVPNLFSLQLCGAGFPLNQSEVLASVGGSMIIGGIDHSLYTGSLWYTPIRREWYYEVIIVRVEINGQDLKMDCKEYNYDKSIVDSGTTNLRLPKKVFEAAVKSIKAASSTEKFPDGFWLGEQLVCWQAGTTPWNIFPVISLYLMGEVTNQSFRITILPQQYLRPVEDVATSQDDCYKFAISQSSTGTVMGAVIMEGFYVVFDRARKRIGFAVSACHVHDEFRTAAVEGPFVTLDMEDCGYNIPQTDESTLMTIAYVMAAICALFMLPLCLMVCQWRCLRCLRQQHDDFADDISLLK

Take `CN(C)Cc1cc(C2(c3cccc(-c4cccnc4F)c3)N=C(N)N(C)C2=O)cn1CCF` (stereo not drawn) [Example 238]: the melting point lay within 118 to 121 °C. This compound returned an IC50 at human BACE1 of 110 to 1000 nM. The corresponding values for `COC(=O)c1cc([C@]2(c3ccc(F)c(-c4cccnc4F)c3)N=C(N)N(C)C2=O)cn1CCF` [Example 184A, Methyl 4-{(4S)-2-amino-4-[4-fluoro-3-(2-fluoropyridin-3-yl)phenyl]-1-methyl-5-oxo-4,5-dihydro-1H-imidazol-4-yl}-1-(2-fluoroethyl)-1H-pyrrole-2-carboxylate] are 111 to 113 °C and 10 to 100 nM. The corresponding values for `CN1C(=O)C(c2cccc(-c3cncnc3)c2)(c2cc(C#N)n(C)c2)N=C1N` (stereo not drawn) [Example 225, 4-[2-Amino-1-methyl-5-oxo-4-(3-pyrimidin-5-ylphenyl)-4,5-dihydro-1H-imidazol-4-yl]-1-methyl-1H-pyrrole-2-carbonitrile] are 214 to 225 °C and 110 to 1000 nM. The corresponding values for `COC(=O)c1cc(C2(c3cccc(-c4ccc(F)nc4)c3)N=C(N)N(C)C2=O)cn1CCF` (stereo not drawn) [Example 191] are 206 to 210 °C and 10 to 100 nM. Take `CCCNC(=O)c1cc(C2(c3cccc(-c4cccnc4F)c3)N=C(N)N(C)C2=O)cn1CC` (stereo not drawn) [Example 159]: the melting point lay in the range of 120 to 123 °C. For the same compound, on human BACE1, the IC50 lay within 110 to 1000 nM. The corresponding values for `CN1C(=O)C(c2cccc(-c3cccnc3F)c2)(c2cnn(C3CCCC3)c2)N=C1N` (stereo not drawn) [Example 100] are 106 to 109 °C and 10 to 100 nM. The corresponding values for `CCn1cc([C@]2(c3cccc(-c4cccnc4F)c3)N=C(N)N(C)C2=O)cc1C(C)=O` [Example 187, (5S)-5-(5-Acetyl-1-ethyl-1H-pyrrol-3-yl)-2-amino-5-[3-(2-fluoropyridin-3-yl)phenyl]-3-methyl-3,5-dihydro-4H-imidazol-4-one] are 109 to 111 °C and 10 to 100 nM. Consider `COc1cncc(-c2cccc(C3(c4ccsc4)N=C(N)N(C)C3=O)c2)c1` (stereo not drawn) [Example 37], for which the melting point came out at 197 °C. This compound also had an IC50 on human BACE1 of 10 to 100 nM.

Compound `CN1C(=O)C(c2cc[nH]c2)(c2cccc(OCc3ccccc3)c2)N=C1N` (stereo not drawn) [Example 58, 2-amino-5-(3-benzyloxyphenyl)-5-(1H-pyrrol-3-yl)-3-methyl-3,5-dihydro-4H-imidazol-4-one] returned a melting point of 98 to 100 °C. Also, the IC50 on human BACE1 is > 1000 nM. The corresponding values for `CCn1cc(C2(c3ccc(F)c(-c4cncnc4)c3)N=C(N)N(C)C2=O)cn1` (stereo not drawn) [Example 9, 2-Amino-5-(1-ethyl-1H-pyrazol-4-yl)-5-(4-fluoro-3-pyrimidin-5-ylphenyl)-3-methyl-3,5-dihydro-4H-imidazol-4-one] are 120 to 121 °C and 10 to 100 nM.

Compound `CCC1(c2cc(C3(c4cccc(-c5cccnc5F)c4)N=C(N)N(C)C3=O)cs2)OCCO1` (stereo not drawn) [Example 113] had a melting point of 93 to 103 °C. On the same count and under the same terms, the result for `CC(C)n1cc(C2(c3ccc(F)c(-c4cncnc4)c3)N=C(N)N(C)C2=O)cn1` (stereo not drawn) [Example 96] reads 110 to 113 °C. On the same count and under the same terms, the same measure for `CN1C(=O)C(c2cccc(Br)c2)(c2ccn(CC(F)(F)F)c2)N=C1N` (stereo not drawn) [Example 51, 2-Amino-5-(3-bromophenyl)-3-methyl-5-[1-(2,2,2-trifluoroethyl)-1H-pyrrol-3-yl]-3,5-dihydro-4H-imidazol-4-one]: 74 to 76 °C; for `CCn1cc(C2(c3cccc(-c4cccnc4F)c3)N=C(N)N(C)C2=O)cc1/C=N/OC` (stereo not drawn) (as salt: hydrochloride) [Example 241, 4-[2-Amino-4-[3-(2-fluoropyridin-3-yl)phenyl]-1-methyl-5-oxo-4,5-dihydro-1H-imidazol-4-yl]-1-ethyl-1H-pyrrole-2-carbaldehyde O-methyloxime hydrochloride]: 190 to 193 °C.

With `CCCCc1ccc(C2(c3ccccc3)N=C(N)N(C)C2=O)s1` (stereo not drawn) [Example 109, 2-Amino-5-(5-butylthien-2-yl)-3-methyl-5-phenyl-3,5-dihydro-4H-imidazol-4-one], the IC50 at human BACE1 was > 1000 nM. Same read-out and setting: the same measure for `CCn1cc(C2(c3cccc(-c4cccnc4F)c3)N=C(N)N(C)C2=O)cn1` (stereo not drawn) [Example 43, 2-Amino-5-(1-ethyl-1H-pyrazol-4-yl)-5-[3-(2-fluoro-pyridin-3-yl)-phenyl]-3-methyl-3,5-dihydro-imidazol-4-one]: 10 to 100 nM. `CC(C)n1cc(C2(c3ccc(F)c(Br)c3)N=C(N)N(C)C2=O)cn1` (stereo not drawn) [Example 95, 2-amino-5-(3-bromo-4-fluorophenyl)-5-(1-isopropyl-1H-pyrazol-4-yl)-3-methyl-3,5-dihydro-4H-imidazol-4-one] displayed a melting point of 80 to 82 °C. Compound `CCC(=O)c1cc(C2(c3cccc(-c4cccnc4F)c3)N=C(N)N(C)C2=O)cs1` (stereo not drawn) [Example 115, 2-Amino-5-[3-(2-fluoro-pyridin-3-yl)-phenyl]-3-methyl-5-(5-propionyl-thiophen-3-yl)-3,5-dihydro-imidazol-4-one] gave a melting point of 98 to 112 °C. For the compound `CCCn1cc([C@]2(c3cccc(-c4cccnc4F)c3)N=C(N)N(C)C2=O)cc1C(=O)CC` [254 A], the IC50 at human BACE1 fell in the range of 10 to 100 nM.

Take `CCCn1cc([C@@]2(c3cccc(-c4cccnc4F)c3)N=C(N)N(C)C2=O)cc1C(=O)CC` [254 B]: the IC50 on human BACE1 is > 1000 nM. With `CCC(=O)c1cc([C@]2(c3cccc(-c4cccnc4F)c3)N=C(N)N(C)C2=O)cn1CC(F)F` [253 A], at human BACE1, the IC50 lay in the range of 10 to 100 nM. On human BACE1, `CCn1cc(C2(c3cccc(-c4cncc(Cl)c4)c3)N=C(N)N(C)C2=O)cn1` (stereo not drawn) [Example 46, 2-Amino-5-[3-(5-chloropyridin-3-yl)phenyl]-5-(1-ethyl-1H-pyrazol-4-yl)-3-methyl-3,5-dihydro-imidazol-4-one] yielded an IC50 of 10 to 100 nM.

For the compound `CN1C(=O)C(c2cccc(Br)c2)(c2cnn(CC(F)(F)F)c2)N=C1N` (stereo not drawn) [Example 81, 2-amino-5-(3-bromophenyl)-3-methyl-5-[1-(2,2,2-trifluoroethyl)-1H-pyrazol-4-yl]-3,5-dihydro-4H-imidazol-4-one], the melting point was in the range of 80 to 82 °C. The compound `CCn1cc(C2(c3cccc(-c4cncc(F)c4)c3)N=C(N)N(C)C2=O)cn1` (stereo not drawn) [Example 45, 2-Amino-5-(1-ethyl-1H-pyrazol-4-yl)-5-[3-(5-fluoro-pyridin-3-yl)-phenyl]-3-methyl-3,5-dihydro-imidazol-4-one] returned an IC50 at human BACE1 of 10 to 100 nM. `CCn1ccc(C2(c3cccc(Br)c3)N=C(N)N(C)C2=O)c1` (stereo not drawn) [Example 50, 2-Amino-5-(3-bromophenyl)-5-(1-ethyl-1H-pyrrol-3-yl)-3-methyl-3,5-dihydro-4H-imidazol-4-one] gave a melting point of 138 to 140 °C. With `CC(=O)c1cc([C@@]2(c3ccccc3)N=C(N)N(C)C2=O)cn1C` [249 B], the IC50 at human BACE1 is > 1000 nM.

On to `CCC(=O)c1cc([C@@]2(c3cccc(-c4cccnc4F)c3)N=C(N)N(C)C2=O)cn1CCCF` [255 B], for which, on human BACE1, the IC50 is > 1000 nM. For the compound `CCn1cc([C@@]2(c3cccc(-c4cccnc4F)c3)N=C(N)N(C)C2=O)cn1` [Example 44A, (5R)-2-Amino-5-(1-ethyl-1H-pyrazol-4-yl)-5-[3-(2-fluoropyridin-3-yl)phenyl]-3-methyl-3,5-dihydro-4H-imidazol-4-one], the IC50 at human BACE1 was > 1000 nM. As for `CCC(=O)c1cc([C@]2(c3cccc(-c4cccnc4F)c3)N=C(N)N(C)C2=O)cn1CCCCF` [250 A], the IC50 at human BACE1 was 10 to 100 nM.

On to `CCn1cc(C2(c3cccc(-c4cccnc4F)c3)N=C(N)N(C)C2=O)cc1/C=N/OC` (stereo not drawn) [Example 241, 4-[2-Amino-4-[3-(2-fluoropyridin-3-yl)phenyl]-1-methyl-5-oxo-4,5-dihydro-1H-imidazol-4-yl]-1-ethyl-1H-pyrrole-2-carbaldehyde O-methyloxime hydrochloride], for which, at human BACE1, the IC50 lay in the range of 10 to 100 nM.

As for `CCC(=O)c1cc([C@@]2(c3cccc(-c4cccnc4F)c3)N=C(N)N(C)C2=O)cn1CC(F)F` [253 B], at human BACE1, the IC50 is > 1000 nM. As for `CCn1cc([C@]2(c3cccc(-c4cccnc4F)c3)N=C(N)N(C)C2=O)cc1C=O` [Example 247, 4-{(4S)-2-Amino-4-[3-(2-fluoropyridin-3-yl)phenyl]-1-methyl-5-oxo-4,5-dihydro-1H-imidazol-4-yl}-1-ethyl-1H-pyrrole-2-carbaldehyde], the half-inhibitory concentration (IC50) on human BACE1 was 10 to 100 nM.
